Measurements taken from patent publication US20030134880A1, “Novel cd23 inhibitors” (priority 2000, published 2003).

target: T1, human recombinant collagenase (Homo sapiens, UniProt P03956); experiment: Collagenase inhibition assay; assay type: biochemical; conditions: acetylated 3H type 1 bovine collagen, 37° C., 18 h
T1 construct: made in house; host or cells: E. coli
T1 sequence (P03956 100-469): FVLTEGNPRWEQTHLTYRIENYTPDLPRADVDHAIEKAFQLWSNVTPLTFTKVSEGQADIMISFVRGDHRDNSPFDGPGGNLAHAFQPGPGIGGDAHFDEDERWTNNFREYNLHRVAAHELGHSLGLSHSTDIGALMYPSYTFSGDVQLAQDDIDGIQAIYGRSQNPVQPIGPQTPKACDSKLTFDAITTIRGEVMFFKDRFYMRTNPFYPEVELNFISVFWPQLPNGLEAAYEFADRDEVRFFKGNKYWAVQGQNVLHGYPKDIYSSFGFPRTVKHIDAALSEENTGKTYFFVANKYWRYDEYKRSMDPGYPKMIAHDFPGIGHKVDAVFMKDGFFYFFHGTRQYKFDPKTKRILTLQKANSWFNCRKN
Description: Procedure 2: The ability of test compounds to inhibit collagenase was investigated using the following procedure.
Collagenase Inhibition Assay:
The potency of compounds to act as inhibitors of collagenase was determined by the method of Cawston and Barrett (Anal. Biochem. 99, 340-345, 1979), hereby incorporated by reference, whereby a 1 mM solution of the inhibitor being tested or dilutions thereof, was incubated at 37° C. for 18 h with collagen and human recombinant collagenase, from synovial fibroblasts cloned, expressed and purified from E. Coli, (buffered with 150 mM Tris, pH 7.6. containing 15 mM calcium chloride, 0.05% Brij 35.200 mM sodium chloride and 0.02% sodium azide). The collagen was acetylated ^3H type 1 bovine collagen prepared by the method of Cawston and Murphy (methods in Enzymology 80. 711,1981) The samples were centrifuged to sediment undigested collagen and an aliquot of the radioactive supernatant removed for assay on a scintillation counter as a measure of hydrolysis. The collagenase activity in the presence of 1 mM inhibitor, or dilution thereof, was compared to activity in a control devoid of inhibitor and the results reported as that concentration effecting 50% of the collagenase (IC50).

IC50 [µM] | Compound
≤ 10 | O=C(NO)C(c1ccccc1)N(Cc1cccnc1)S(=O)(=O)Cc1ccc2sccc2c1 (racemic) [Example 2, (R,S)-2-[(Benzo[b]thiophen-5-ylmethanesulfonyl)(pyridin-3-ylmethyl)-amino]-N-hydroxy-2-phenylacetamide]
≤ 10 | O=C(NO)[C@@H](C1CCCCC1)N(Cc1ccco1)S(=O)(=O)Cc1ccc2sccc2c1 [Example 14, (R)-2-[(Benzo[b]thiophen-5-ylmethanesulfonyl)(furan-2-ylmethyl)-amino]-2-cyclohexyl-N-hydroxy-acetamide]
≤ 10 | COCCOCCN([C@@H](C(=O)NO)c1ccccc1)S(=O)(=O)Cc1ccc2sccc2c1 [Example 1, (R)-2-{(Benzo[b]thiophen-5-ylmethanesulfonyl)[2-(2-methoxyethoxy)-ethyl]amino}-N-hydroxy-2-phenylacetamide]
≤ 10 | CC(C)C[C@H](C(=O)NO)N(Cc1cccnc1)S(=O)(=O)Cc1ccc2sccc2c1 [Example 8]
